Reference: ChEMBL document CHEMBL5223073, “Andrographolide suppresses cisplatin-induced endothelial hyperpermeability through activation of PI3K/Akt and eNOS -derived nitric oxide” (Bioorg Med Chem, 2020)
Active and inactive are the calls of the source. The rule behind the calls is not given here.

Assays:
[1] = target: T1, NF-kappa-B inhibitor alpha (Homo sapiens) (UniProt P25963); test: Inhibition of cisplatin-induced phosphorylation of IkappaBalpha at Ser32/36 residue in HUVEC cells at 30 uM preincubated with PI3K inhibitor, wortmannin followed by compound addition and further incubated for 1 hr by Western blot analysis; type: cell-based
T1 sequence (whole entry): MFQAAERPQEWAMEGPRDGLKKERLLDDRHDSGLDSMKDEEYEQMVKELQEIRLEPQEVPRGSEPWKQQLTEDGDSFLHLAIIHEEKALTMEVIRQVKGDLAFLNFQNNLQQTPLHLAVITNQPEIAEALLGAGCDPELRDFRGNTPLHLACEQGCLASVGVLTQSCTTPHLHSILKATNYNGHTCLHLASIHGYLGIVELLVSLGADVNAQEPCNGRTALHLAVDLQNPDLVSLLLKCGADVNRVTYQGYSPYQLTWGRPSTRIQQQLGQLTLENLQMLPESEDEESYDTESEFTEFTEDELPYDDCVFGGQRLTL

HUVEC [2] = test: Improvement in cisplatin-induced endothelial monolayer integrity in HUVEC cells assessed as reduction in transmembrane movement of albumin at 30 uM preincubated with compound in presence of eNOS inhibitor, N(G)-nitro-L-arginine methyl ester followed by cisplatin stimulation and measured after 2 hrs; type: functional, cell-based; settings: Homo sapiens
HUVEC [3] = test: Downregulation of cisplatin-induced PKCalpha translocation in HUVEC cells at 30 uM incubated for 15 mins in presence of cisplatin and PI3K inhibitor, wortmannin by Western blot analysis; type: functional, cell-based; settings: Homo sapiens
[4] = target: Transcription factor p65 (Homo sapiens) (UniProt Q04206); test: Inhibition of cisplatin-induced phosphorylation of p65 subunit at Ser536 residue in HUVEC cells at 30 uM incubated for 1 hr by Western blot analysis; type: cell-based
Transcription factor p65 (Homo sapiens), sequence (Q04206 whole entry): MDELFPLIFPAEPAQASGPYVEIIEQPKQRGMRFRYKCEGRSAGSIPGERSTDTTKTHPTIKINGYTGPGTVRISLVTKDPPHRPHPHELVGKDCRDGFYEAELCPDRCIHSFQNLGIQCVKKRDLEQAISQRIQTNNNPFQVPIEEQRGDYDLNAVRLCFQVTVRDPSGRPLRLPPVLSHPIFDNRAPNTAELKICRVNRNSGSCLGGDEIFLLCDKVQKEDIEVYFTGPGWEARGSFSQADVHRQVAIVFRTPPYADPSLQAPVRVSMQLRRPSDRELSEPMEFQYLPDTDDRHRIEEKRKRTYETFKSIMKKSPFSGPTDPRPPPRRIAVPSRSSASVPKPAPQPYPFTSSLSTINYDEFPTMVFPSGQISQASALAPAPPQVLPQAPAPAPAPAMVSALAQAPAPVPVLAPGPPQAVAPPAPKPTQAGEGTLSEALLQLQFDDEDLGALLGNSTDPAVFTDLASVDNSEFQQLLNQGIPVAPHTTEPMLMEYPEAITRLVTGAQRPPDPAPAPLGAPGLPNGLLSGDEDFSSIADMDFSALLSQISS

[5] = target: T2, Nitric oxide synthase 3 (Homo sapiens) (UniProt P29474); test: Activation of eNOS activity in cisplatin-treated HUVEC cells assessed as increase in intracellular cGMP level incubated for 15 mins by radioimmunoassay; type: cell-based; settings: filed as activator, dose 10-30 µM
T2 sequence (whole entry): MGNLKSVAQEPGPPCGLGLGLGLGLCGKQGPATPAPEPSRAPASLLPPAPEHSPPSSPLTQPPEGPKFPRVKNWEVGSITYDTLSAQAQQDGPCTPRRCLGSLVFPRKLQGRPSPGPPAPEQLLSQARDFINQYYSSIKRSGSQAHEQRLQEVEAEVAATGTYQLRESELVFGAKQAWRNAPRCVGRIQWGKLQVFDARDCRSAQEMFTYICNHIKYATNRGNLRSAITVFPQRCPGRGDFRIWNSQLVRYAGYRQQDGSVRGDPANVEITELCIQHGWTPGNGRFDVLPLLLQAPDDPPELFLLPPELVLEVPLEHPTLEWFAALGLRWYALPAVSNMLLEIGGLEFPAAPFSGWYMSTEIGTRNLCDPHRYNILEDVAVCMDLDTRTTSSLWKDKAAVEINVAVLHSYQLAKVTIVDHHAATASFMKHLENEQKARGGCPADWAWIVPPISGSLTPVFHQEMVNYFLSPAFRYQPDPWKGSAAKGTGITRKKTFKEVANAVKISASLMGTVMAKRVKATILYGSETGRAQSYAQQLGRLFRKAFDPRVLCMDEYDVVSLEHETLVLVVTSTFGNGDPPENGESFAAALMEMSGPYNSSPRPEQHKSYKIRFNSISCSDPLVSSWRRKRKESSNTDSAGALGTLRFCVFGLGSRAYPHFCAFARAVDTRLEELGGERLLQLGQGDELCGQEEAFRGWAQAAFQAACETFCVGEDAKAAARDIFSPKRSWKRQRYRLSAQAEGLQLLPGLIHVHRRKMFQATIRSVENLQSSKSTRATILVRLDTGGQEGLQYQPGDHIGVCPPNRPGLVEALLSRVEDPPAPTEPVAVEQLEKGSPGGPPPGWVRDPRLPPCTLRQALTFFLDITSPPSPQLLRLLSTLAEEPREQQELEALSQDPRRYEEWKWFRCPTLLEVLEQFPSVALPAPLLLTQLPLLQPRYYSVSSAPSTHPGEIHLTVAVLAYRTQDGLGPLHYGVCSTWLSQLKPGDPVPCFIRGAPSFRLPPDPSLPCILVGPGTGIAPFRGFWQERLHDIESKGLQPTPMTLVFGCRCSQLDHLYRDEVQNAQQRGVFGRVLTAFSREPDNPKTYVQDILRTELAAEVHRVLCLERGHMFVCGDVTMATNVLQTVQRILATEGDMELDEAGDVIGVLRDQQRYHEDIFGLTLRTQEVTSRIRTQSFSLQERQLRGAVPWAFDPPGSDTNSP

[6] = target: T1, NF-kappa-B inhibitor alpha (Homo sapiens); test: Inhibition of cisplatin-induced phosphorylation of IkappaBalpha at Ser32/36 residue in HUVEC cells at 30 uM preincubated with eNOS inhibitor, N(G)-nitro-L-arginine methyl ester followed by compound addition and further incubated for 1 hr by Western blot analysis; type: cell-based
U-937 = test: Inhibition of cisplatin-induced ICAM1 dependent HUVEC cells adhesion to human U-937 cells at 10 to 30 uM preincubated with HUVEC cells for 4.5 hrs in presence of cisplatin and eNOS inhibitor, N(G)-nitro-L-arginine methyl ester followed by U-937 cell suspension addition and measured after 1 hr by BCECF fluorescent probe based assay; type: functional; settings: dose 10-30 µM, time 5.5 hrs
HUVEC [7] = test: Inhibition of cisplatin-induced store operated Ca2+ release in HUVEC cells at 30 uM preincubated with compound in presence of eNOS inhibitor, N(G)-nitro-L-arginine methyl ester followed by cisplatin stimulation by Fura-2 AM staining based calcium influx assay; type: functional, cell-based; settings: Homo sapiens
HUVEC [8] = test: Induction of NO production in cisplatin-treated HUVEC cells assessed as increase in fluorescence signal at 30 uM preincubated with PI3K inhibitor, wortmannin for 3 hrs followed by compound addition and measured immediately by DAF-FM dye based analysis; type: functional, cell-based; settings: Homo sapiens
HUVEC [9] = test: Inhibition of cisplatin-induced TRPC1 phosphorylation in [32P] orthophosphate labeled HUVEC cells at 30 uM incubated for 15 mins in presence of cisplatin by Western blot analysis; type: cell-based; settings: Homo sapiens
HUVEC [10] = test: Induction of NO production in cisplatin-treated HUVEC cells assessed as increase in fluorescence signal at 30 uM measured after 4 to 15 mins by DAF-FM dye based analysis; type: functional, cell-based; settings: Homo sapiens, time 4-15 min
HUVEC [11] = test: Inhibition of cisplatin-induced ICAM-1 mRNA expression in HUVEC cells preincubated for 30 mins followed by cisplatin addition and measured after 24 hrs by RT-PCR analysis; type: functional, cell-based; settings: Homo sapiens, dose 10-30 µM, time 24.5 hrs
HUVEC [12] = test: Inhibition of cisplatin-induced store operated Ca2+ release in HUVEC cells at 30 uM preincubated with compound followed by cisplatin stimulation by Fura-2 AM staining based calcium influx assay; type: functional, cell-based; settings: Homo sapiens
HUVEC [13] = test: Activation of PI3K in cisplatin-treated HUVEC cells assessed as increase PIP3 formation at 30 uM pretreated for 30 mins in presence of PI3K inhibitor, wortmannin followed by cisplatin addition by immunoprecipitation analysis; type: cell-based; settings: Homo sapiens
HUVEC [14] = test: Improvement in cisplatin-induced endothelial monolayer integrity in HUVEC cells assessed as increase in transendothelial electric resistance at 30 uM preincubated with compound in presence of PI3K inhibitor, wortmannin followed by cisplatin stimulation and measured after 45 mins; type: functional, cell-based; settings: Homo sapiens

Question: What does the source list for `C=C1CC[C@@H]2[C@](C)(CO)[C@H](O)CC[C@@]2(C)[C@@H]1C/C=C1/C(=O)OC[C@H]1O` [ANDROGRAPHOLIDE]?
Answer: inhibition [1]: inactive; Activity (HUVEC [2]): inactive; Activity (HUVEC [3]): inactive; inhibition [4]: Active; Activity [5]: Dose-Dependent Effect; inhibition [6]: inactive; inhibition (U-937): inactive; inhibition (HUVEC [7]): inactive; Activity (HUVEC [8]): inactive; inhibition (HUVEC [9]): Active; Activity (HUVEC [10]): Active; inhibition (HUVEC [11]): Dose-Dependent Effect; inhibition (HUVEC [12]): Active; Activity (HUVEC [13]): inactive; Activity (HUVEC [14]): inactive
